In experiment [1] the target is Estrogen receptor (Homo sapiens) (UniProt Q92731+P03372). Description: Percent inhibition of estrogen receptor transcriptional activity at estradiol EC50; NA=not active. It is filed as functional.
In experiment [2] the target is T1, Glucocorticoid receptor (Homo sapiens) (UniProt P04150).
T1 sequence (whole entry): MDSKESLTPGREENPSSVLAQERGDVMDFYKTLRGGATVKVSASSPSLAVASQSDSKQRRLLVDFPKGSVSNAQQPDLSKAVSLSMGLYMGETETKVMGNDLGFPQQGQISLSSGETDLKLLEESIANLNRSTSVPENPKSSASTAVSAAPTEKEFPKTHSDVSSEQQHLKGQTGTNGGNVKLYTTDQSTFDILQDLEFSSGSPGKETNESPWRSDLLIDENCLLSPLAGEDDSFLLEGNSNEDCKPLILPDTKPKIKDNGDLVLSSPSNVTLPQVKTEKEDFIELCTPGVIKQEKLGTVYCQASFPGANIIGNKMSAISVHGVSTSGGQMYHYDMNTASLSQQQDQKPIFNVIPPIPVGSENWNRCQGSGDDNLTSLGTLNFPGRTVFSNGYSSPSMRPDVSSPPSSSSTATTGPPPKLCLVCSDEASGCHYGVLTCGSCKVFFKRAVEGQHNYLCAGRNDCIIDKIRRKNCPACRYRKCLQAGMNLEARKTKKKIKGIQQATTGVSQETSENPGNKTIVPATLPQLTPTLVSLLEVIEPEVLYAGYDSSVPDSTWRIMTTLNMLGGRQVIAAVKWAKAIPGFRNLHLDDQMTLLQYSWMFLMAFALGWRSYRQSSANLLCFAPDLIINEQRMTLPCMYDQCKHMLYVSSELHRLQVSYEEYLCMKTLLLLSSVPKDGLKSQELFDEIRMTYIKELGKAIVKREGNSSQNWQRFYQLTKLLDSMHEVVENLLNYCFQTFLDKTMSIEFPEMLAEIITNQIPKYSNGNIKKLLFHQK
As to the kind of experiment: Percent inhibition of glucocorticoid receptor transcriptional activity at Dexamethasone EC50; not active. Format: functional.

Experiment [3] concerns the target T2, Glucocorticoid receptor (Homo sapiens, UniProt P04150).
T2 sequence (P04150 whole entry): T1 sequence (whole entry)
Description: Cross-reactivity as binding to human glucocorticoid receptor (hGR); NA=not active. It is filed as functional.

Experiment [4] deals with T3, Mineralocorticoid receptor (Homo sapiens, UniProt P08235).
T3 sequence (P08235 whole entry): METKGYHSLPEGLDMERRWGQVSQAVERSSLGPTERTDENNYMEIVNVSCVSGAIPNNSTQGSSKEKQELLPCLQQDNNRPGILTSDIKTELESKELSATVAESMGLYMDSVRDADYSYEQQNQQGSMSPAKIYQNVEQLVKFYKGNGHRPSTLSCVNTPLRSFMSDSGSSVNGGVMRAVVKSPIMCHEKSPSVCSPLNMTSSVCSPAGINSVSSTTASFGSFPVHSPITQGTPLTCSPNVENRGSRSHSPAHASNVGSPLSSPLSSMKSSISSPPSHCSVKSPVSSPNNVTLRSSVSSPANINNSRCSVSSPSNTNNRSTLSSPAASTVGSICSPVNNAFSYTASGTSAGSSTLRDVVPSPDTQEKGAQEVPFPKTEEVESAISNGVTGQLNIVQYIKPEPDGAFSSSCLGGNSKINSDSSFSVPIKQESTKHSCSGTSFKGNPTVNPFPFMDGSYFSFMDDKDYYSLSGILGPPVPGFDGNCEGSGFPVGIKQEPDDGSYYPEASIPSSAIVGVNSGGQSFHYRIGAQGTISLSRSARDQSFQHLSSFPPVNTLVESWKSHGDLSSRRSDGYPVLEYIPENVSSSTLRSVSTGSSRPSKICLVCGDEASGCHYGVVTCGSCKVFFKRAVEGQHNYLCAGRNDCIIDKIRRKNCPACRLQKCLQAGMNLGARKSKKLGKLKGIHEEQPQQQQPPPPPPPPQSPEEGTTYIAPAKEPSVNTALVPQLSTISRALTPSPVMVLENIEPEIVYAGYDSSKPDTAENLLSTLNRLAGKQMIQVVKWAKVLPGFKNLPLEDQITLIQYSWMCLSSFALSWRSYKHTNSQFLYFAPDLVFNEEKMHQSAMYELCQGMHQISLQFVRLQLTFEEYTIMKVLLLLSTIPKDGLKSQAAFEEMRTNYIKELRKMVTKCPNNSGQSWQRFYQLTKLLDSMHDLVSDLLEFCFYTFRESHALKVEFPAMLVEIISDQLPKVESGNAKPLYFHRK
Description: Cross-reactivity as binding to human mineralocorticoid receptor (hMR). It is filed as functional.

Experiment [5] has as its target T4, Progesterone receptor (Homo sapiens, UniProt P06401).
T4 sequence (P06401 whole entry): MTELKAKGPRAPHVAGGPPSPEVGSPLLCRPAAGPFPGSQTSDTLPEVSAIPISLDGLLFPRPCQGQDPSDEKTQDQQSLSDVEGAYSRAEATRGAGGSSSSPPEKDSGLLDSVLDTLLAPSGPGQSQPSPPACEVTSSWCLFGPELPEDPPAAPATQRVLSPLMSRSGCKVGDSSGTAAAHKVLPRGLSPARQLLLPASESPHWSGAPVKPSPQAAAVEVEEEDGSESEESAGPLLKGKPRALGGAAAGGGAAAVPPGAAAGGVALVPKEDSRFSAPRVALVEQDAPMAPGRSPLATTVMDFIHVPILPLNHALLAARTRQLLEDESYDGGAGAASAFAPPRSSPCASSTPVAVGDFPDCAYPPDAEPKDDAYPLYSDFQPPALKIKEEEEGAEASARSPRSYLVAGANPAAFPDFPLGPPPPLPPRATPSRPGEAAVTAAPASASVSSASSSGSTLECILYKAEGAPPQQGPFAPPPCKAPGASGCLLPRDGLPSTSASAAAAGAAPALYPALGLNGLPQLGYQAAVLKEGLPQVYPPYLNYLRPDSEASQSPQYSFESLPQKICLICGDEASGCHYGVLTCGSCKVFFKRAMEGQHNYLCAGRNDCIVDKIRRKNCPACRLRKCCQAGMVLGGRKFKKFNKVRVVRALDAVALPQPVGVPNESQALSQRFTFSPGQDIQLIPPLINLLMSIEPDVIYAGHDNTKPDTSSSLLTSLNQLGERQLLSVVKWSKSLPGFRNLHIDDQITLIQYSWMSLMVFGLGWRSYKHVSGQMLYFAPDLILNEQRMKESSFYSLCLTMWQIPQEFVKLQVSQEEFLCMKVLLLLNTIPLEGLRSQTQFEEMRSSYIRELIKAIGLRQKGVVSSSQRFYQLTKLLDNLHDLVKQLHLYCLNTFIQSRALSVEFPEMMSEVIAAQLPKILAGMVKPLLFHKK
Description: Human progesterone receptor (hPR) agonist activity using cotransfection assay in CV-1 cells. Format: functional, cell-based.

Another experiment concerns the target T5, Androgen receptor (Homo sapiens, UniProt P10275).
T5 sequence (P10275 whole entry): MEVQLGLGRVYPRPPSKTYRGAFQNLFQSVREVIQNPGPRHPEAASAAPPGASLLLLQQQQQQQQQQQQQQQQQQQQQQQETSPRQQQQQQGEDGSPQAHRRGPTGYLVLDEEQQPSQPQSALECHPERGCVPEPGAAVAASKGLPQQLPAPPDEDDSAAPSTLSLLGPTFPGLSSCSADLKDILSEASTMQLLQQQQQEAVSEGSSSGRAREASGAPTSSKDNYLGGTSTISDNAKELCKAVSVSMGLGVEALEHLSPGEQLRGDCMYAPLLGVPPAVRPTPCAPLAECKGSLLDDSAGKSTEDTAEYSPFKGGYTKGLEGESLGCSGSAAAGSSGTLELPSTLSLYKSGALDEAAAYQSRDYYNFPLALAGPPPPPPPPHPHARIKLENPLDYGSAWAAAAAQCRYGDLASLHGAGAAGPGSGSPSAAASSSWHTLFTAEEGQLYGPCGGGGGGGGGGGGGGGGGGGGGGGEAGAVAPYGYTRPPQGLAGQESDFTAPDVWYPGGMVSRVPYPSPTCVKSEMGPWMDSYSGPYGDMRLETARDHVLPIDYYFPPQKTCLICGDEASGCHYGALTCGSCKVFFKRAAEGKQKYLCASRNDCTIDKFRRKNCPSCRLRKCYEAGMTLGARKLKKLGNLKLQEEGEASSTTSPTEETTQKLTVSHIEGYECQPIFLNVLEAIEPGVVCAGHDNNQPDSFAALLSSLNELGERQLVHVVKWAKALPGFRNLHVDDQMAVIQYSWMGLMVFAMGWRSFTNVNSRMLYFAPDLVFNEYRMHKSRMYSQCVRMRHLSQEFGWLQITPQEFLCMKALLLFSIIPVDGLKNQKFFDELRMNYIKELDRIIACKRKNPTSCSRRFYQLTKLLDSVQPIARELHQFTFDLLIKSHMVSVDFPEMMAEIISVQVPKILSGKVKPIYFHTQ
As to the kind of experiment: Cross-reactivity as binding to human androgen receptor (hAR). It is filed as functional.

Experiment [6] has as its target T4, Progesterone receptor. Description: Antagonist activity against human progesterone receptor (hPR) using cotransfection assay in CV-1 cells. Format: functional, cell-based.
In experiment [7] the target is T2, Glucocorticoid receptor. As to the kind of experiment: Cross-reactivity as binding to human glucocorticoid receptor (hGR). Format: functional.
Experiment [8] has as its target T4, Progesterone receptor. Description: Binding affinity against human progesterone receptor (hPR) in a competitive binding assay.
Experiment [9] has as its target T4, Progesterone receptor. As to the kind of experiment: Human progesterone receptor (hPR) agonist activity expressed in CV-1 cells. It is filed as functional, cell-based.
Experiment [10] addresses T4, Progesterone receptor. As to the kind of experiment: Antagonist activity against human progesterone receptor (hPR) in T47D human breast cancer cell line. Format: functional, cell-based.
Experiment [11] has as its target T6, Mineralocorticoid receptor (Homo sapiens) (UniProt P08235).
T6 sequence (whole entry): T3 sequence (P08235 whole entry)
As to the kind of experiment: Percent inhibition of mineralocorticoid receptor transcriptional activity at aldosterone EC50; NA=not active. It is filed as functional.

Experiment [12] deals with T4, Progesterone receptor. As to the kind of experiment: Human progesterone receptor (hPR) agonist activity in T47D human breast cancer cell line. It is filed as functional, cell-based.
Experiment [13] addresses T3, Mineralocorticoid receptor. As to the kind of experiment: Cross-reactivity as binding to human mineralocorticoid receptor (hMR); NA=not active. Format: functional.
The target of experiment [14] is T1, Glucocorticoid receptor (Homo sapiens). Description: Percent inhibition of glucocorticoid receptor transcriptional activity at Dexamethasone EC50. It is filed as functional.
Experiment [15] has as its target T6, Mineralocorticoid receptor (Homo sapiens). As to the kind of experiment: Percent inhibition of mineralocorticoid receptor transcriptional activity at aldosterone EC50. It is filed as functional.

The source made the active and inactive calls. No cut-off for these calls is given here. Bounds are passed on as bounds.

On to `CC1=CC(C)(C)Nc2ccc(-c3cc(F)cc(C#N)c3)cc21`, for which the Efficacy result in experiment [1] and in experiment [2] was “inactive” in each case. The IC50 (usually the midpoint of a concentration-inhibition curve) on Glucocorticoid receptor [3] is “Not Active”; in experiment [4] it was more than 1000 nM. Moreover, on Progesterone receptor [5], the EC50 (commonly the concentration needed to bring the measured effect to its halfway point) is “Not Active”.

`Cc1cc(C#N)sc1-c1ccc2c(c1)C(C)(C)C(=O)C(C)(C)N2`: the IC50 came to 150 nM on Androgen receptor, 10 nM at Progesterone receptor [6], 2100 nM in experiment [4] and 35 nM at Glucocorticoid receptor [7]. Besides, the Ki – broadly, the dissociation constant of the complex between target and ligand, obtained from inhibition or displacement – at Progesterone receptor [8] was 3.9 nM. The compound also came in with an EC50 on Progesterone receptor [9] of 350 nM.

`CC1=CC(C)(C)Nc2ccc(-c3ccc(C#N)s3)cc21`: the IC50 at Androgen receptor is 1110 nM; on Progesterone receptor [6], 27 nM; on Progesterone receptor [10], 80 nM; at Glucocorticoid receptor [7], 3200 nM; in [13] it was “Not Active”. For the same compound, in [11], the Efficacy entry is “inactive”. Also, at Progesterone receptor [8], the Ki was determined as 55 nM. Further, the EC50 amounted to 1800 nM at Progesterone receptor [12] and 2900 nM on Progesterone receptor [9].

For the compound `CC1=CC(C)(C)Nc2ccc(-c3csc(C#N)c3)cc21`, the figures for the Efficacy in [14] and in experiment [15] were 83% and 88%, respectively. In addition, the IC50 is 494 nM on Androgen receptor, 106 nM on Progesterone receptor [10], 2050 nM in experiment [4] and 2600 nM at Glucocorticoid receptor [7]. Moreover, at Progesterone receptor [8], the Ki was found to be 3.5 nM. Further, the EC50 at Progesterone receptor [12] is 245 nM; on Progesterone receptor [9], 1800 nM.

Source of the values: ChEMBL document CHEMBL1133403 (Bioorg Med Chem Lett, 2000).
